Measured values taken from patent US20040062739A1, “Use of carbohydrates to improve skin barrier function” (SOCIETE L'OREAL S.A., priority 2000, published 2004).

Assays:
[1] = test system: β-D-glucosidase in the stratum corneum; test: enzymatic test of stratum corneum glycosidases with PNP chromogenic substrate: β-glucosidase; format: biochemical; details: different concentrations, FIG. 2
Procedure: In order to determine the nature and importance of the barrier effect of a carbohydrate derivative in accordance with the invention, the influence of O-octanoyl-6′-maltose on glycosidase activity was studied using the following enzymatic test: The assay was carried out in a 96 well plate. A mixture comprising the following was produced: 75μl of a 10 mM solution of specific chromogenic substrate coupled to paranitrophenol (PNP); 10 μl of 700 mM citrate buffer/200 mM sodium phosphate, pH 4.5; 55 μl of a 0.5 M solution of O-octanoyl-6′-maltose [α-D-glucopyannosyl-1-4-D-glucopyranose]; 40 μl of a solution of soluble glycosidases from the stratum corneum. This solution was obtained simply by scratching the forearm into a 70 mM sodium citrate buffer, pH 4.5 containing 1% of Tween 20 and eliminating cell debris by sequential filtering through a membrane with a pore size of 0.45 and of 0.22 μm. The measurements were carried out by quantifying the yellow coloration after incubation at 37° C. for a period in the range 1h30 and 48 hours.

[2] = test system: GLY-04; design: key: −: no activity; ε, +, ++: specific activity; ε, +, ++: specific activity; ε, +, ++: specific activity; details: glycosidase sold by Clonezyme; cited from earlier work
[3] = test system: GLY-07; design: key: −: no activity; ε, +, ++: specific activity; ε, +, ++: specific activity; ε, +, ++: specific activity; details: glycosidase sold by Clonezyme; cited from earlier work
[4] = test system: GLY-01; design: key: −: no activity; ε, +, ++: specific activity; ε, +, ++: specific activity; ε, +, ++: specific activity; details: glycosidase sold by Clonezyme; cited from earlier work
[5] = test system: GLY-06; design: key: −: no activity; ε, +, ++: specific activity; ε, +, ++: specific activity; ε, +, ++: specific activity; details: glycosidase sold by Clonezyme; cited from earlier work
[6] = test system: GLY-09; design: key: −: no activity; ε, +, ++: specific activity; ε, +, ++: specific activity; ε, +, ++: specific activity; details: glycosidase sold by Clonezyme; cited from earlier work
[7] = test system: GLY-05; design: key: −: no activity; ε, +, ++: specific activity; ε, +, ++: specific activity; ε, +, ++: specific activity; details: glycosidase sold by Clonezyme; cited from earlier work
[8] = test system: GLY-02; design: key: −: no activity; ε, +, ++: specific activity; ε, +, ++: specific activity; ε, +, ++: specific activity; details: glycosidase sold by Clonezyme; cited from earlier work
[9] = test system: GLY-08; design: key: −: no activity; ε, +, ++: specific activity; ε, +, ++: specific activity; ε, +, ++: specific activity; details: glycosidase sold by Clonezyme; cited from earlier work
[10] = test system: GLY-10; design: key: −: no activity; ε, +, ++: specific activity; ε, +, ++: specific activity; ε, +, ++: specific activity; details: glycosidase sold by Clonezyme; cited from earlier work
[11] = test system: GLY-03; design: key: −: no activity; ε, +, ++: specific activity; ε, +, ++: specific activity; ε, +, ++: specific activity; details: glycosidase sold by Clonezyme; cited from earlier work

Structure (SMILES) | stimulation of β-D-glucosidase activity [1] | substrate specificity GLY-04 [2] | substrate specificity GLY-07 [3] | substrate specificity GLY-01 [4] | substrate specificity GLY-06 [5] | substrate specificity GLY-09 [6] | substrate specificity GLY-05 [7] | substrate specificity GLY-02 [8] | substrate specificity GLY-08 [9] | substrate specificity GLY-10 [10] | substrate specificity GLY-03 [11]
CCCCCCCC(=O)OCC1OC(O)C(O)C(O)C1O [O-octanoyl-6-D-glucose] | a certain stimulation of activity, albeit small |  |  |  |  |  |  |  |  |  | 
CC(=O)NC1C(O)CC(Oc2ccc([N+](=O)[O-])cc2)(C(=O)O)OC1C(O)C(O)CO [α-D-N-acetylneuramide] |  | − | − | − | − | − | − | − | − | − | −
OC[C@H]1O[C@H](O)[C@H](O)[C@@H](O)[C@H]1O [α-D-galactose] |  | − | − | − | − | − | − | − | − | + | −
OC[C@H]1O[C@H](O)[C@H](O)[C@@H](O)[C@@H]1O [α-D-glucose] |  | ++ | ++ | ++ | ++ | ++ | ++ | ++ | ++ | − | ++
OC[C@H]1O[C@H](O)[C@@H](O)[C@@H](O)[C@@H]1O [α-D-mannose] |  | − | − | − | − | − | − | − | − | − | −
C[C@@H]1O[C@@H](O)[C@@H](O)[C@H](O)[C@@H]1O [α-L-fucose] |  | − | − | − | − | − | − | − | − | − | −
C[C@@H]1O[C@@H](O)[C@H](O)[C@H](O)[C@H]1O [α-L-rhamnose] |  | − | − | − | − | − | − | − | − | − | −
CC(=O)NC1C(OC2C(CO)OC(Oc3ccc([N+](=O)[O-])cc3)C(NC(C)=O)C2O)OC(CO)C(O)C1O [β-D-N-acetylch obloside] |  | − | − | − | − | − | − | − | − | − | −
OC[C@H]1O[C@H](O[C@H]2[C@H](O)[C@@H](O)[C@H](O)O[C@@H]2CO)[C@H](O)[C@@H](O)[C@@H]1O [β-D-cellobiose] |  | ε | + | − | + | ε |  | ++ | ε | − | ε
C[C@H]1O[C@@H](O)[C@H](O)[C@@H](O)[C@H]1O [β-D-fucose] |  | ++ | ++ | − | ++ | ++ | ++ | ++ | + | − | ++
OC[C@H]1O[C@@H](O)[C@H](O)[C@@H](O)[C@H]1O [β-D-galactose] |  | + | ε | − | ε | − | + | ++ | + | − | ε
OC[C@H]1O[C@@H](O)[C@H](O)[C@@H](O)[C@@H]1O [β-D-glucose] |  | − | − | − | − | − | − | − | − | − | −
O=C(O)[C@H]1O[C@@H](Oc2ccc([N+](=O)[O-])cc2)[C@H](O)[C@@H](O)[C@@H]1O [β-D-glucuronide] |  | − | ε | − | − | − | − | − | − | − | −
OC[C@H]1O[C@@H](O[C@H]2[C@H](O)[C@@H](O)[C@H](O)O[C@@H]2CO)[C@H](O)[C@@H](O)[C@H]1O [β-D-lactose] |  | − | ε | − | + | − | − | + | − | − | ε
OC[C@H]1O[C@@H](O)[C@@H](O)[C@@H](O)[C@@H]1O [β-D-mannose] |  | − | + | − | + | + | − | ε | − | − | −
O[C@@H]1[C@@H](O)[C@H](O)OC[C@H]1O [β-D-xylose] |  | ε | ε | ε | ε | ε | ε | + | ε | − | −
C[C@@H]1O[C@H](O)[C@@H](O)[C@H](O)[C@@H]1O [β-L-fucose] |  | − | − | − | − | − | − | − | − | − | −
CC(=O)NC1C(Oc2ccc([N+](=O)[O-])cc2)OC(CO)C(O)C1O [β-N-acetyl-D-glucosaminide] |  | − | − | − | − | − | − | − | − | − | −
